The values below come from publication PMC1847840, “Structural and Chemical Profiling of the Human Cytosolic Sulfotransferases” (PLoS Biology, 2007).

In one assay the target is T1, SULT1A1 (Homo sapiens, UniProt P50225).
T1 construct: purified recombinant; clone and tag not described
The assay can be described thus: thermal aggregation shift (StarGazer static light scattering). To be noted: 1 mM compound, pH 7.5, with saturating PAP. The class given is binding. From the text: thermal aggregation shift (StarGazer static light scattering) on SULT1A1

A further assay concerns the target T2, SULT1C3 (Homo sapiens, UniProt Q6IMI6).
T2 construct: recombinant, modified pET28a-LIC, bacterial expression; extra Gly-Ser at N-terminus
The description is as above. The class given is binding. As to conditions: 1 mM compound.

Assay [1] addresses T3, SULT1C2 (Homo sapiens, UniProt O75897).
T3 construct: gene SULT1C4; recombinant, modified pET28a-LIC, bacterial expression; extra Gly-Ser at N-terminus
Described as above. It counts as binding. To be noted: 1 mM compound, pH 7.5, no other ligand. From the text: thermal aggregation shift (StarGazer static light scattering) on SULT1C2

For the next assay, the target named is T4, SULT1C1 (Homo sapiens, UniProt O00338).
T4 construct: gene SULT1C2; recombinant, modified pET28a-LIC; extra Gly-Ser at N-terminus
T4 sequence (O00338 whole entry): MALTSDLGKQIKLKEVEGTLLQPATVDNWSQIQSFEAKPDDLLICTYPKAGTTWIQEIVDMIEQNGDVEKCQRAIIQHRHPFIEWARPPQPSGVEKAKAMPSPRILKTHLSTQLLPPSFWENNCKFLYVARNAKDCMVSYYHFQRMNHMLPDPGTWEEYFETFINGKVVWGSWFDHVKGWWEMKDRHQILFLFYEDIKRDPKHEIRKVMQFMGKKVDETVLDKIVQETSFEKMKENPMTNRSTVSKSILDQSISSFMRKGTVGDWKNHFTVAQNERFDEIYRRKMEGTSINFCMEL
The assay is described as above. The class given is binding. To be noted: 1 mM compound. From the text: thermal aggregation shift (StarGazer static light scattering) on SULT1C1

Assay [2] has as its target T5, SULT1B1 (Homo sapiens, UniProt O43704).
T5 construct: recombinant, modified pET28a-LIC, bacterial expression; extra Gly-Ser at N-terminus
Described as above. The class given is binding. To be noted: 1 mM compound. The source says: thermal aggregation shift (StarGazer static light scattering) on SULT1B1

Another assay has as its target T6, SULT1E1 (Homo sapiens, UniProt P49888).
T6 construct: purified recombinant; clone and tag not described
T6 sequence (P49888 1-294): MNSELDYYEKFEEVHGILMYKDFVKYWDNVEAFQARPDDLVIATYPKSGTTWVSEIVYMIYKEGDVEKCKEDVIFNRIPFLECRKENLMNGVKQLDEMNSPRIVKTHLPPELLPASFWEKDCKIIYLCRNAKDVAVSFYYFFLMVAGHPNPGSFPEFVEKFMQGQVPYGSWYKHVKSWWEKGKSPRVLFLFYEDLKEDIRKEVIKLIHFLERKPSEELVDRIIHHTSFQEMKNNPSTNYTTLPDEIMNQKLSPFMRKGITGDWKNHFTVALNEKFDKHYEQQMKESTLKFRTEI
The assay is described as above. It counts as binding. As to conditions: 1 mM compound, pH 7.5, with saturating PAP. From the text: thermal aggregation shift (StarGazer static light scattering) on SULT1E1

The next assay addresses T7, SULT1A3 (Homo sapiens, UniProt P0DMM9).
T7 construct: purified recombinant; clone and tag not described; SULT1A4 encodes the same protein
The description is as above. The class given is binding. As to conditions: 1 mM compound, pH 7.5, with saturating PAP. The source says:
thermal aggregation shift (StarGazer static light scattering) on SULT1A3

For the next assay, the target named is T8, SULT4A1 (Homo sapiens, UniProt Q9BR01).
T8 construct: recombinant, modified pET28a-LIC, bacterial expression; extra Gly-Ser at N-terminus
T8 sequence (Q9BR01 1-284): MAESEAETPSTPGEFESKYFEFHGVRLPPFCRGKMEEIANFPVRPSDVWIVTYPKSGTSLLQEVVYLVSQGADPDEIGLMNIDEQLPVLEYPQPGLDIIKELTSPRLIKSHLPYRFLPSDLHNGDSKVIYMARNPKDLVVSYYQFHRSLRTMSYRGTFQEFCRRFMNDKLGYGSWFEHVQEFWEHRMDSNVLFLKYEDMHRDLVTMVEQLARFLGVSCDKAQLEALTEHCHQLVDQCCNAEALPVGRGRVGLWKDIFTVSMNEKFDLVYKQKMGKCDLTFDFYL
The description is as above. It counts as binding. As to conditions: 1 mM compound, pH 7.5, without PAP. From the text: thermal aggregation shift (StarGazer static light scattering) on SULT4A1

For a further assay, the target named is T9, SULT2A1 (Homo sapiens, UniProt Q06520).
T9 construct: purified recombinant; clone and tag not described
T9 sequence (Q06520 1-285): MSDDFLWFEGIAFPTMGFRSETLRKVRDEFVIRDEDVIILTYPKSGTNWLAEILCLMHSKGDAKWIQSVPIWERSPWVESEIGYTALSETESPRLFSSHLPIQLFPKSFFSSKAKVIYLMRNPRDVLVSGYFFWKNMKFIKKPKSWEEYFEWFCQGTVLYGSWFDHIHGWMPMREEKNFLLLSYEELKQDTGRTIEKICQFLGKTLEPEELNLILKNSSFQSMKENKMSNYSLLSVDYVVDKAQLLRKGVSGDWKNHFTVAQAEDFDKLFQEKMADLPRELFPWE
The assay is described as above. To be noted: 1 mM compound, pH 7.5, without PAP. It counts as binding. From the text: thermal aggregation shift (StarGazer static light scattering) on SULT2A1

Assay [3] concerns the target T3, SULT1C2. Description: X-ray crystal structure, […] Å. The class given is binding. As to conditions: ternary complex with PAP; substrate pocket.
For assay [4], the target named is T5, SULT1B1. Description: HPLC PAPS to PAP conversion, inhibition of sulfotransferase activity. To be noted: 1-naphthol as substrate; PCP 5 to 312 μM; pH 7.5, 37 °C. The class given is biochemical.

T2 sequence (Q6IMI6 whole entry): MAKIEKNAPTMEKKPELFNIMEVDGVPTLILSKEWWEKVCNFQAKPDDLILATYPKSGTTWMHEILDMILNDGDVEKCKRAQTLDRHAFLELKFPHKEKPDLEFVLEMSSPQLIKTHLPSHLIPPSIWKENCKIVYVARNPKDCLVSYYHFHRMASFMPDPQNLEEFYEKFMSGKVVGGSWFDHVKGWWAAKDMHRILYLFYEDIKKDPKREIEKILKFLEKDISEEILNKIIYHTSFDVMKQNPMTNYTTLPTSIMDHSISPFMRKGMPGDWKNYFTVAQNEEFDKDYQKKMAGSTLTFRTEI
T5 sequence (O43704 whole entry): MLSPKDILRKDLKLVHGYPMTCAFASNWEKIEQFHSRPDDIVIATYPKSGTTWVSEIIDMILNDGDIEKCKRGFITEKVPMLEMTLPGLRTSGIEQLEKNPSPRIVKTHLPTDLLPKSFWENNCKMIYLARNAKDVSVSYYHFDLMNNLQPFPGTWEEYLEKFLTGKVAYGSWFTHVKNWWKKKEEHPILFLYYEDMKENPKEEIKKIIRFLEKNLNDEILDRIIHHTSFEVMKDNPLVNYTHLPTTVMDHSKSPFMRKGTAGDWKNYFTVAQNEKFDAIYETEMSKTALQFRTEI
T3 sequence (O75897 whole entry): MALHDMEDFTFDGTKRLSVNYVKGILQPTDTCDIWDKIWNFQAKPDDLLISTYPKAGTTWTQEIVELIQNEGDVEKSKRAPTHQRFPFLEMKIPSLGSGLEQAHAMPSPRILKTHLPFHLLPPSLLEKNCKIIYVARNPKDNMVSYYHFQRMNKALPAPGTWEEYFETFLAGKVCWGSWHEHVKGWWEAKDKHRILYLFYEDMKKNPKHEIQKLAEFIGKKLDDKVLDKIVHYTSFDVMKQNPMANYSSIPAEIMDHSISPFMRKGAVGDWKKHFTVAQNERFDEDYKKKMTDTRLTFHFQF
T1 sequence (P50225 whole entry): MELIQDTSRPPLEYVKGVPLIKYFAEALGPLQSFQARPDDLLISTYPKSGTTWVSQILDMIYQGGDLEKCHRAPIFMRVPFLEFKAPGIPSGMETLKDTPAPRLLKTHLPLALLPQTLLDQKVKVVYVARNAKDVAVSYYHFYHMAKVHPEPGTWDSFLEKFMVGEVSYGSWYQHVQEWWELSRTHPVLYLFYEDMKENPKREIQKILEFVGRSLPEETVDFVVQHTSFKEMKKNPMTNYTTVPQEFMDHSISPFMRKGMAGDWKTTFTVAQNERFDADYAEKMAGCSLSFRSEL
T7 sequence (P0DMM9 whole entry): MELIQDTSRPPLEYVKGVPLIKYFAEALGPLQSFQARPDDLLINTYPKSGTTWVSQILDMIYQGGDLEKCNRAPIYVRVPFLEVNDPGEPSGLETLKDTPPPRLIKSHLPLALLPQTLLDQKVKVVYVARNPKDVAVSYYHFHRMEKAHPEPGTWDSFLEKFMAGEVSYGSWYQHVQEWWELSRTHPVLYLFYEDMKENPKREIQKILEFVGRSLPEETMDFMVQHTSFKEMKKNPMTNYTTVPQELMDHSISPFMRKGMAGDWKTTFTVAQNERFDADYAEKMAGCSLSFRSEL

`O=[N+]([O-])c1cc(Cl)c(O)c(Cl)c1` [2,6-dichloro-4-nitrophenol]: on SULT1A1, the dTagg was 8.7 °C.

Take `CCc1ccccc1O` [2-ethylphenol]: the dTagg at SULT1C3 (pH 7.5, with saturating PAP) came out at 2.1 °C.

Consider `Nc1ncnc2c1ncn2[C@@H]1O[C@H](COP(=O)(O)O)[C@@H](OP(=O)(O)O)[C@H]1O` [3′-phosphoadenosine 5′-phosphate], for which the dTagg on SULT1C2 [1] stood at 6.4 °C; at SULT1C1 (pH 7.5, no other ligand) it was 4.5 °C; at SULT1B1 [2] (pH 7.5, no other ligand), 7.8 °C; at SULT1C3 (pH 7.5, no other ligand), 6.5 °C.

As for `C#C[C@]1(O)CC[C@H]2[C@@H]3CCc4cc(O)ccc4[C@H]3CC[C@@]21C` [17α-ethinylestradiol], at SULT1E1, the dTagg amounted to 4.3 °C.

With `O=C(NN=Cc1coc2c(Cl)cc(Cl)cc2c1=O)c1cc(Br)c(O)c(Br)c1` [DBHD, 3,5-dibromo-4-hydroxy-benzoic acid (6,8-dichloro-4-oxo-4H-chromen-3-ylmethylene) hydrazide], the dTagg on SULT1B1 [2] (pH 7.5, without PAP) is 11.4 °C.

Regarding `NCCc1ccc(O)c(O)c1` [dopamine], the dTagg on SULT1A3 worked out at 2.3 °C.

`CNC[C@H](O)c1ccc(O)c(O)c1` [epinephrine]: the dTagg at SULT4A1 came to 16 °C.

In the case of `CC(C)NCC(O)c1ccc(O)c(O)c1` (stereo not shown) [isoprenaline], at SULT4A1, the dTagg was determined as 18 °C.

With `C[C@H](CCC(=O)O)[C@H]1CC[C@H]2[C@@H]3CC[C@@H]4C[C@H](O)CC[C@]4(C)[C@H]3CC[C@]12C` [lithocholic acid], at SULT2A1, the dTagg was found to be 4.4 °C.

As to `Oc1c(Cl)c(Cl)c(Cl)c(Cl)c1Cl` [pentachlorophenol], on SULT1C2 [3], the “X-ray crystal structure, 1.8 Å” value was “we determined the structure of SULT1C2 bound to PAP and PCP”. In addition, the dTagg at SULT1A1 stood at 10.2 °C; on SULT1B1 [2] (pH 7.5, with saturating PAP), 8.9 °C. The “% inhibition” value at SULT1B1 [4] was “PCP and DBHD were strong inhibitors of SULT1B1”.

Turning to `O=c1c(O)c(-c2ccc(O)c(O)c2)oc2cc(O)cc(O)c12` [quercetin dihydrate], the dTagg on SULT1C1 (pH 7.5, without PAP) was 31 °C.

In the case of `Oc1ccc(/C=C/c2cc(O)cc(O)c2)cc1` [resveratrol], the dTagg at SULT1C1 (pH 7.5, without PAP) came to 6.6 °C.

In the case of `C[C@H]1CCC[C@H](O)CCC/C=C/c2cc(O)cc(O)c2C(=O)O1` [α-zearalenol], the dTagg at SULT1C3 (pH 7.5, with saturating PAP) was determined as 2.8 °C.
